# Where two headings read alike, the source gives them in different places.
# Assays:
# HepG2 cells = assay: High content imaging cytotoxicity parameters: selected cell count per valid field (SCC) and CMFDA cytoplasm average intensity
# Experimental: (§1) HepG2 cells (Order No. HB-8065, Lot. 58483209, ATCC, Manassas, USA) were cultured in DMEM/F12 with L-Glutamine and 15 mM Hepes supplemented with 10% (v/v) FBS, 1% (v/v) penicillin (10 kU/ml)/streptomycin (10 mg/ml) solution, 0.1% (v/v) gentamicin (50 mg/ml), and 1 mM sodium pyruvate at 37° C. and 5% CO2 in culture flasks. Depending on the experiment, an appropriate number of cells were seeded onto plates after detaching of the cells using trypsin and cells were cultured at 37° C. and 5% CO2 for 24 h prior to treatment. All experiments were performed three times with cells of passages 4-20.
# (§2) Cells were seeded onto black Poly-D-Lysin coated 96-well-plates (BD Biocoat, Franklin Lakes, USA) (0.02×10^6 cells/well) and left 24 h for adherence and then treated with test compounds at a maximum concentration of 1 mM which is recommended by the ICH S2(R1) guideline (EMA, 2011). For each compound, nine concentrations were tested with 2-fold serial dilutions. DMSO 1% (v/v) served as vehicle control for the experiments. The treatment procedure was different for direct-genotoxic and pro-genotoxic compounds. The treatment for direct genotoxic compounds was ongoing and was repeated daily over 48 h. Pro-genotoxic compounds were incubated for 6 h together with metabolic activation system (to limit the cytotoxic effect of the S9-mixture). After this period, cells were washed with cell media followed by 18-repeated daily over 48 h. The metabolic activation system used consisted of the following components and concentrations: 8 mM MgCl2, 32.8 mM KCl, 12 mM NADPH, 124 mM phosphate buffer and 2500 pmol/ml cytochrome P450 (CYP) content in the pre-mixture corresponding to 2.4 mM MgCl2, 9.8 mM KCl, 3.6 mM NADPH, 37.2 mM phosphate buffer, and 750 pmol/ml CYP as final concentrations after dilution 1:3.33 with cell culture media.
# After treatment, cells were rinsed with PBS (Gibco Invitrogen, Karlsruhe, Germany), and then stained with 10 μM CellTracker Green 5-Chloromethylfluorescein Diacetate (CMFDA) (Invitrogen, Karlsruhe, Germany) in cell culture media for 30 min. CMFDA is per se non-fluorescent and is hydrolyzed by esterase in viable cells to a fluorescent-dye. The reaction with thiol groups leads to a cell-impermeable fluorescent-dye-adduct. The esterase activity can be used as an indicator for viability of cells (Papadopoulos et al., 1994, J Immunol Methods 177, 101-11). Afterwards, cells were washed with PBS and fixed with 3.7% Formaldehyde (Sigma-Aldrich, Taufkirchen, Germany) in PBS for 20 min. After that, cells were washed with PBS and blocked and permeabilized with 2% donkey serum (Millipore, Schwalbach, Germany) and 0.25% Triton X-100 (Sigma-Aldrich, Taufkirchen, Germany) in PBS for 30 min. Primary antibodies were diluted in Blocking/Permeabilization solution to final concentrations of 4 μg/ml anti-p-Chk1 (Ser345) goat polyclonal antibody IgG (santa cruz, Santa Cruz, USA), 4 μg/ml anti-p-ATM (Ser1981) mouse monoclonal antibody IgG1K (Millipore, Schwalbach, Germany) and added to the cells. After incubation for 16-18 h, cells were washed with 0.05% Tween 20 (Calbiochem, Darmstadt, Germany) in PBS, and the secondary antibody/16 μM Hoechst staining solution Blocking/Permeabilization solution was added. Secondary antibodies were diluted 1:400 (Alexa Fluor 555 donkey anti-goat, Alexa Fluor 647 donkey anti-mouse, Invitrogen, Karlsruhe, Germany). After an incubation of 1 h, followed by two additional washing steps with 0.05% Tween 20, cells were washed with PBS and finally PBS was added and cells were measured.
# Image acquisition was performed on the ArrayScan VTI HCS Reader (Cellomics, Pittsburgh, USA) using a 20× objective. To detect enough cells, 50 images starting at the middle of each well were gathered.
# • Channel 1: selected cell count per valid field • Channel 2: CMFDA cytoplasm average intensity • Channel 3: p-Chk1 (Ser345) nucleus average intensity • Channel 4: p-ATM (Ser1981) nucleus average intensity
# [1] = system: p-p53 (Ser15), p21, p-H2A.X (Ser139), p-ATM (Ser1981), p-Chk1 (Ser345) in HepG2 cells
# Experimental: as §1, §2
# Two different staining procedures were performed for each compound with and without metabolic activation system:
# After treatment, cells were rinsed with PBS (Gibco Invitrogen, Karlsruhe, Germany), and then fixed with 3.7% formaldehyde (Sigma-Aldrich, Taufkirchen, Germany) in PBS for 20 min. After an additional washing step with PBS, cells were blocked and permeabilized with 2% donkey serum (Millipore, Schwalbach, Germany) and 0.25% Triton X-100 (Sigma-Aldrich, Taufkirchen, Germany) in PBS for 30 min. Primary antibodies were diluted to final concentrations of 2 μg/ml anti-p-p53 (Ser15) rabbit monoclonal antibody IgG (Invitrogen, Karlsruhe, Germany), 0.8 μg/ml anti-p21 goat polyclonal antibody IgG, (R&D systems, Minneapolis, USA); 4 μg/ml anti-p-Histone H2A.X (Ser139) mouse monoclonal antibody IgG1 (Millipore, Schwalbach, Germany) in Blocking/Permeabilization solution were added afterwards. After incubation for 16-18 h, cells were washed with 0.05% Tween 20 (Calbiochem, Darmstadt, Germany) in PBS and the secondary antibody/16 μM Hoechst staining solution in Blocking/Permeabilization solution was added. Secondary antibodies were diluted 1:400 (Alexa Fluor 488 donkey anti-rabbit, Alexa Fluor 555 donkey anti-goat, Alexa Fluor 647 donkey anti-mouse, Invitrogen, Karlsruhe, Germany). After an incubation of 1 h, followed by two additional washing steps with 0.05% Tween 20, cells were washed with PBS and finally PBS was added and cells were measured.
# After treatment, cells were rinsed with PBS (Gibco Invitrogen, Karlsruhe, Germany), and then stained with 10 μM CellTracker Green 5-Chloromethylfluorescein Diacetate (CMFDA) (Invitrogen, Karlsruhe, Germany) in cell culture media for 30 min. CMFDA is per se non-fluorescent and is hydrolyzed by esterase in viable cells to a fluorescent-dye. The reaction with thiol groups leads to a cell-impermeable fluorescent-dye-adduct. The esterase activity can be used as an indicator for viability of cells (Papadopoulos et al., 1994, J Immunol Methods 177, 101-11). Afterwards, cells were washed with PBS and fixed with 3.7% Formaldehyde (Sigma-Aldrich, Taufkirchen, Germany) in PBS for 20 min.
# p-ATM (Ser1981) = assay: High content imaging of p-ATM (Ser1981) nucleus average intensity; assay type: cell-based, human; conditions: HepG2 cells, 48 h; fold-change over vehicle control, threshold 1.8
# Experimental: as §1
# Cells were seeded onto black Poly-D-Lysin coated 96-well-plates (BD Biocoat, Franklin Lakes, USA) (0.02×10^6 cells/well) and left 24 h for adherence and then treated with test compounds at a maximum concentration of 1 mM which is recommended by the ICH S2(R1) guideline (EMA, 2011). […]
# After treatment, cells were rinsed with PBS (Gibco Invitrogen, Karlsruhe, Germany), and then stained with 10 μM CellTracker Green 5-Chloromethylfluorescein Diacetate (CMFDA) (Invitrogen, Karlsruhe, Germany) in cell culture media for 30 min. […] After an incubation of 1 h, followed by two additional washing steps with 0.05% Tween 20, cells were washed with PBS and finally PBS was added and cells were measured.
# Image acquisition was performed on the ArrayScan VTI HCS Reader (Cellomics, Pittsburgh, USA) using a 20× objective. […]
# [2] = HepG2 cells, 48 h, CMFDA cytoplasm average intensity, with rat liver S9 (+S9)
# [3] = HepG2 cells, 48 h, CMFDA cytoplasm average intensity, without metabolic activation (−S9)
# [4] = HepG2 cells, 48 h, selected cell count per valid field, with rat liver S9 (+S9)
# [5] = HepG2 cells, 48 h, selected cell count per valid field, without metabolic activation (−S9)
# [6] = HepG2 cells ± S9, 48 h, positive if at least one of five proteins shows fold-change above threshold (2.1 p-Chk1, p-H2A.X; 1.8 p21, p-ATM; 1.9 p-p53)
Compound,"CMFDA +S9 highest conc. <50% cytotox. over control (HepG2 cells; human, 48 h)","CMFDA −S9 highest conc. <50% cytotox. over control (HepG2 cells; human, 48 h)","SCC +S9 highest conc. <50% cytotox. over control (HepG2 cells; human, 48 h)","SCC −S9 highest conc. <50% cytotox. over control (HepG2 cells; human, 48 h)",result for the five protein markers tested (compound set as positive or negative) [1],CMFDA +S9 highest conc. <50% cytotox. over control (HepG2 cells; [2]),CMFDA −S9 highest conc. <50% cytotox. over control (HepG2 cells; [3]),SCC +S9 highest conc. <50% cytotox. over control (HepG2 cells; [4]),SCC −S9 highest conc. <50% cytotox. over control (HepG2 cells; [5]),"result for the five protein markers tested (compound set as positive or negative) [1, 6]",further results
CCCOC(=O)c1cc(O)c(O)c(O)c1 [Propyl gallate],1000 µM,1000 µM,1000 µM,500 µM,positive,–,–,–,–,–,–
O=[N+]([O-])c1ccc(O)cc1 [p-Nitrophenol],–,–,–,–,positive,–,–,–,–,–,–
[Cl][Cd][Cl] [Cadmium chloride],–,–,–,–,–,62.5 µM,62.5 µM,125 µM,31.25 µM,no positive result,–
c1ccc2c(c1)ccc1ccccc12 [Phenanthrene],1000 µM,1000 µM,1000 µM,1000 µM,–,–,–,–,–,–,result for p-ATM (Ser1981) (p-ATM (Ser1981)): positive
"Cc1ccc(N)cc1N [2,4-diaminotoluene]",–,–,–,–,–,1000 µM,1000 µM,1000 µM,1000 µM,no positive result,–
CN(C)N=O [Dimethylnitrosamine],–,–,–,–,–,1000 µM,1000 µM,1000 µM,1000 µM,no positive result,–
"Oc1ccc(Cl)cc1Cl [2,4-Dichlorophenol]",–,–,–,–,–,–,–,–,–,positive,CMFDA +S9 highest conc. <50% cytotox. over control (HepG2 cells; human): 1000 µM; CMFDA −S9 highest conc. <50% cytotox. over control (HepG2 cells; human): 1000 µM; SCC +S9 highest conc. <50% cytotox. over control (HepG2 cells; human): 500 µM; SCC −S9 highest conc. <50% cytotox. over control (HepG2 cells; human): 250 µM
C=CCc1ccc(O)c(OC)c1 [Eugenol],125 µM,1000 µM,125 µM,1000 µM,positive,–,–,–,–,–,–
CCN(N=O)C(N)=O [Ethylnitrosourea],–,–,–,–,–,1000 µM,1000 µM,1000 µM,1000 µM,no positive result,–
CC1(C)S[C@@H]2[C@H](NC(=O)[C@H](N)c3ccccc3)C(=O)N2[C@H]1C(=O)O [Ampicillin trihydrate],1000 µM,1000 µM,1000 µM,1000 µM,–,–,–,–,–,–,–

# — patent publication US20150140123A1, “Protein expression analyses for identifying genotoxic compounds” (Merck Patent GmbH, priority 2012, published 2015)
